Molecules are shown by their SMILES.

The test has as its system HCCLM3 cells. In words: GI50 in HCCLM3 cells, cell viability by MTS assay. The format is cell-based. As to conditions: Homo sapiens, 72 hours incubation, triplicates, read-out: HCCLM3 activity range (GI50). How it is done: To investigate the effects of compounds on hepatocellular carcinoma (HCC) cell viability, HCCLM3 cells (HCC cells with high metastatic potential) were incubated with increasing concentrations of test compounds for 72 hours. Cell viability was evaluated at the end of incubation period by MTS assay. […] All samples were evaluated in triplicates.
As set forth in Table 1 below, GI50 values are defined as follows: GI50≤10 μM (+++); GI50>10 μM and ≤20 μM (++); GI50>20 μM (+).
On to `COc1cc2nccc(Oc3ccc(NC(=O)C4(C(=O)NC56CC(C5)C6)CC4)cc3)c2cc1OC` [Compound 1, N-(bicyclo[1.1.1]pentan-1-yl)-N-(4-(6,7-dimethoxyquinolin-4-yloxy)phenyl)cyclopropane-1,1-dicarboxamide], for which the GI50 (commonly the concentration at which growth is held to half of that of the control) was not above 10 µM.
Under `COc1cc2nccc(Oc3ccc(NC(=O)C4(C(=O)NC56CC(c7ccccc7)(C5)C6)CC4)cc3)c2cc1OC` [Compound 2, N-(4-((6,7-dimethoxyquinolin-4-yl)oxy)phenyl)-N-(3-phenylbicyclo[1.1.1]pentan-1-yl)cyclopropane-1,1-dicarboxamide] stands more than 20 µM; under `COc1cc2nccc(Oc3ccc(NC(=O)C45CC(C(=O)NC67CC(F)(C6)C7)(C4)C5)cc3)c2cc1OC` [Compound 3, N^1-(4-((6,7-dimethoxyquinolin-4-yl)oxy)phenyl)-N3-(3-fluorobicyclo[1.1.1]pentan-1-yl)bicyclo[1.1.1]pentane-1,3-dicarboxamide], more than 20 µM; under `COc1cc2nccc(Oc3ccc(NC(=O)C4(C(=O)NC56CC(F)(C5)C6)CC4)cc3)c2cc1OC` [Compound 4, N-(4-((6,7-dimethoxyquinolin-4-yl)oxy)phenyl)-N-(3-fluorobicyclo[1.1.1]pentan-1-yl)cyclopropane-1,1-dicarboxamide], not above 10 µM.
`COc1cc2nccc(Oc3ccc(NC(=O)C4(C(=O)NC56CC(OC(=O)c7ccccc7)(C5)C6)CC4)cc3)c2cc1OC` [Compound 5, 3-(1-((4-((6,7-dimethoxyquinolin-4-yl)oxy)phenyl)carbamoyl)cyclopropane-1-carboxamido)bicyclo[1.1.1]pentan-1-yl benzoate]: the GI50 was more than 20 µM.
Under `COc1cc2nccc(Oc3ccc(NC(=O)C4(C(=O)NC56CC(O)(C5)C6)CC4)cc3)c2cc1OC` [Compound 6, N-(4-((6,7-dimethoxyquinolin-4-yl)oxy)phenyl)-N-(3-hydroxybicyclo[1.1.1]pentan-1-yl)cyclopropane-1,1-dicarboxamide] stands more than 20 µM; under `COc1cc2nccc(Oc3ccc(NC(=O)C4(C(=O)NC56CC(C(N)=O)(C5)C6)CC4)cc3)c2cc1OC` [Compound 7, N-(3-carbamoylbicyclo[1.1.1]pentan-1-yl)-N-(4-((6,7-dimethoxyquinolin-4-yl)oxy)phenyl)cyclopropane-1,1-dicarboxamide], more than 20 µM; under `COc1cc2nccc(Oc3ccc(NC(=O)C4(C(=O)NC56CC(C(=O)N(C)C)(C5)C6)CC4)cc3)c2cc1OC` [Compound 8, N-(4-((6,7-dimethoxyquinolin-4-yl)oxy)phenyl)-N-(3-(dimethylcarbamoyl)bicyclo[1.1.1]pentan-1-yl)cyclopropane-1,1-dicarboxamide], more than 20 µM.
The result for `COc1cc2nccc(Oc3ccc(NC(=O)C4(C(=O)NC56CC(c7cnccn7)(C5)C6)CC4)cc3)c2cc1OC` [Compound 9, N-(4-((6,7-dimethoxyquinolin-4-yl)oxy)phenyl)-N-(3-(pyrazin-2-yl)bicyclo[1.1.1]pentan-1-yl)cyclopropane-1,1-dicarboxamide] reads more than 20 µM; that for `COc1cc2nccc(Oc3ccc(NC(=O)C4(C(=O)NC56CC(C)(C5)C6)CC4)cc3)c2cc1OC` [Compound 10, N-(4-((6,7-dimethoxyquinolin-4-yl)oxy)phenyl)-N-(3-methylbicyclo[1.1.1]pentan-1-yl)cyclopropane-1,1-dicarboxamide], not above 10 µM.
Under `COc1cc2nccc(Oc3ccc(NC(=O)C4(C(=O)NC56CC(C(F)(F)F)(C5)C6)CC4)cc3)c2cc1OC` [Compound 11, N-(4-((6,7-dimethoxyquinolin-4-yl)oxy)phenyl)-N-(3-(trifluoromethyl)bicyclo[1.1.1]pentan-1-yl)cyclopropane-1,1-dicarboxamide] stands not above 10 µM; under `COc1cc2nccc(Oc3ccc(NC(=O)C4(C(=O)NC56CC(N)(C5)C6)CC4)cc3)c2cc1OC` [Compound 12, N-(3-aminobicyclo[1.1.1]pentan-1-yl)-N-(4-((6,7-dimethoxyquinolin-4-yl)oxy)phenyl)cyclopropane-1,1-dicarboxamide], more than 20 µM.

Source of the values: patent publication US12227511B2, “Bicyclic compounds as kinase modulators, methods and uses thereof” (Agency for Science, Technology and Research, priority 2018, dated 2025).
